According to the Kinase Knowledgebase extract (Sharma et al. 2016):

target: EGFR (UniProt P00533)
Sequence (P00533 whole entry, looked up): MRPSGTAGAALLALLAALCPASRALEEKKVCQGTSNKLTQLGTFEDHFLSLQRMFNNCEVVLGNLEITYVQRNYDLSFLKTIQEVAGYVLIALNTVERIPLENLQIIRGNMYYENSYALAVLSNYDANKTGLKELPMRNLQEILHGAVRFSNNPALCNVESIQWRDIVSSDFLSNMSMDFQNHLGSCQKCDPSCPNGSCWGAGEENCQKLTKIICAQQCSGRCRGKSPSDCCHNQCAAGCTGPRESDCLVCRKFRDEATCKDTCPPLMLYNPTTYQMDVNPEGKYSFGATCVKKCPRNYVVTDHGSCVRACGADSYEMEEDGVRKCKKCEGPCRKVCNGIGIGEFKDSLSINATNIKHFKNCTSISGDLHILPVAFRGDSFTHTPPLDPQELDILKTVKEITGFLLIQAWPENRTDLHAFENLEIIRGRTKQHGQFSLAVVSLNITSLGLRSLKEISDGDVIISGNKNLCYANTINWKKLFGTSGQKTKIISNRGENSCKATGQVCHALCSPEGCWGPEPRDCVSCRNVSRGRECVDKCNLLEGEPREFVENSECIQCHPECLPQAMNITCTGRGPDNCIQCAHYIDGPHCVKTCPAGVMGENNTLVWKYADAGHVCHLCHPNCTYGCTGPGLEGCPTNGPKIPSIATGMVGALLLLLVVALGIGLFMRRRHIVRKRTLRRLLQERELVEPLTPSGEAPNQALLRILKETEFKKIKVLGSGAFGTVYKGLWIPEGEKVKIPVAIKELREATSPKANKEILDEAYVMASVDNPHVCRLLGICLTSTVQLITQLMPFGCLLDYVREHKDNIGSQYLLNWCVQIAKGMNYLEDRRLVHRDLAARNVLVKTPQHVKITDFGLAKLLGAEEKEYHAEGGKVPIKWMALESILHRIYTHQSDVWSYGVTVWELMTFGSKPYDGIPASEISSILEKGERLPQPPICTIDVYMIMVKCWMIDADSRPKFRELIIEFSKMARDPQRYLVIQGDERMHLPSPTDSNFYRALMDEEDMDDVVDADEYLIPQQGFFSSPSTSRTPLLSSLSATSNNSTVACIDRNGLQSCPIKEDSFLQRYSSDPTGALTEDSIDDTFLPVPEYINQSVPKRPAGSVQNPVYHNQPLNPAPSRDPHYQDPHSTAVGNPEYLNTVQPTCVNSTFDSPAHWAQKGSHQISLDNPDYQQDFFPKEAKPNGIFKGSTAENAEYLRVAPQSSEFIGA

SMILES | IC50
CS(=O)(=O)CCN(CC#N)Cc1ccc(-c2ccc3ncnc(Nc4ccc(OCc5cccc(F)c5)c(Cl)c4)c3c2)o1 | < 100 nM
CCN(CCS(C)(=O)=O)Cc1ccc(-c2ccc3ncnc(Nc4ccc(OCc5cccc(F)c5)c(Cl)c4)c3c2)o1 | < 100 nM
C=CS(=O)(=O)CCOCc1ccc(-c2ccc3ncnc(Nc4ccc(OCc5cccc(F)c5)c(Cl)c4)c3c2)o1 | < 100 nM
CCCS(=O)(=O)CCNCc1ccc(-c2cc3c(Nc4ccc(OCc5cccc(F)c5)cc4)ncnc3cn2)o1 | < 100 nM
CS(=O)(=O)CCOCc1ccc(-c2ccc3ncnc(Nc4ccc(OCc5cccc(F)c5)c(Cl)c4)c3c2)o1 | < 100 nM
O=S(=O)(CCNCc1ccc(-c2ccc3ncnc(Nc4ccc(OCc5cccc(F)c5)c(Cl)c4)c3c2)o1)c1ccccn1 | < 100 nM
CCCN(CCS(C)(=O)=O)Cc1ccc(-c2ccc3ncnc(Nc4ccc(OCc5cccc(F)c5)c(Cl)c4)c3c2)o1 | < 100 nM
CCCS(=O)(=O)CCNCc1ccc(-c2ccc3ncnc(Nc4ccc(OCc5cccc(F)c5)c(Cl)c4)c3c2)o1 | < 100 nM
O=S(=O)(CCOCc1ccc(-c2ccc3ncnc(Nc4ccc(OCc5cccc(F)c5)c(Cl)c4)c3c2)o1)c1ccccc1 | < 100 nM
CS(=O)(=O)CCNCCCc1ccc(-c2ccc3ncnc(Nc4ccc(OCc5ccccc5)c(Cl)c4)c3c2)o1 | < 100 nM
O=S(=O)(CCNCc1ccc(-c2ccc3ncnc(Nc4ccc(OCc5cccc(F)c5)c(Cl)c4)c3c2)o1)c1ccccc1 | < 100 nM
Cn1ccnc1S(=O)(=O)CCNCc1ccc(-c2ccc3ncnc(Nc4ccc(OCc5cccc(F)c5)c(Cl)c4)c3c2)o1 | < 100 nM
